Test results as given in article PMC7265429, “Characterization of a new small-molecule inhibitor of HDAC6 in glioblastoma” (Cell Death & Disease, 2020).

Test system: GNS166 cells
Test: Microarray whole-transcriptome gene expression analysis
Format: cell-based, human
Protocol: Whole-transcriptome analysis was performed from 300 ng of RNA using HuGene-2_0-st-v1 expression array (Affymetrix), which covers 48,226 transcripts. Raw data were first checked for quality purposes through the Affymetrix® Expression Console™ Software v1.4.1 and TAC software v4.0. Then, data were normalized using the Robust Multi-array Average (RMA) and analyzed by Limma tool. Probesets with FDR-corrected p-values smaller than 0.05 were selected. Functional enrichment on Gene Ontology (GO) biological processes was performed on a smaller subset of the differentially expressed genes (corrected p-value < 0.001) by means of Broad Institute GSEA. […] The data that support this study have been deposited in NCBI´s Gene Expression Omnibus and are accessible through GEO series accession number GSE143887.

With `O=C(CCCCCCC(=O)Nc1ccccc1)NO` [SAHA, Suberoylanilide hydroxamic acid] the “logFC LIPA” value (5 µM SAHA vs DMSO, transcript TC1000012577.hg.1) was 1.686, the “logFC ARNTL” value (5 µM SAHA vs DMSO, transcript TC1100006899.hg.1) was 1.497 and the “logFC C11orf74” value (5 µM SAHA vs DMSO, transcript TC1100007307.hg.1) was 1.1776. The “logFC FAM111B” value (5 µM SAHA vs DMSO, transcript TC1100007727.hg.1) was 1.402, the “logFC CYP2R1” value (5 µM SAHA vs DMSO, transcript TC1100010185.hg.1) was 1.194 and the “logFC SESN3” value (5 µM SAHA vs DMSO, transcript TC1100012019.hg.1) was 1.415. For the same compound, the “logFC MMP12” value (5 µM SAHA vs DMSO, transcript TC1100012134.hg.1) was 1.855, the “logFC BIRC3” value (5 µM SAHA vs DMSO, transcript TC1100013087.hg.1) was 2.344 and the “logFC CCND2” value (5 µM SAHA vs DMSO, transcript TC1200006555.hg.1) was 1.786. The “logFC GPRC5A” value (5 µM SAHA vs DMSO, transcript TC1200006896.hg.1) was 1.771, the “logFC STK38L” value (5 µM SAHA vs DMSO, transcript TC1200007146.hg.1) was 1.792 and the “logFC LRP1” value (5 µM SAHA vs DMSO, transcript TC1200007861.hg.1) was 1.377. For the same compound, the “logFC TCP11L2” value (5 µM SAHA vs DMSO, transcript TC1200008726.hg.1) was 1.788, the “logFC SLC2A3” value (5 µM SAHA vs DMSO, transcript TC1200009800.hg.1) was 1.712 and the “logFC ABCD2” value (5 µM SAHA vs DMSO, transcript TC1200010413.hg.1) was 2.708. The “logFC NELL2” value (5 µM SAHA vs DMSO, transcript TC1200010490.hg.1) was 2.463, the “logFC FAIM2” value (5 µM SAHA vs DMSO, transcript TC1200010642.hg.1) was 1.773 and the “logFC AGAP2” value (5 µM SAHA vs DMSO, transcript TC1200010976.hg.1) was 1.559. For the same compound, the “logFC KITLG” value (5 µM SAHA vs DMSO, transcript TC1200011460.hg.1) was 1.767, the “logFC LUM” value (5 µM SAHA vs DMSO, transcript TC1200011495.hg.1) was 3.868 and the “logFC FGD6” value (5 µM SAHA vs DMSO, transcript TC1200011574.hg.1) was 1.639. For the same compound, the “logFC MGST1” value (5 µM SAHA vs DMSO, transcript TC1200012597.hg.1) was 1.82, the “logFC CCNA1” value (5 µM SAHA vs DMSO, transcript TC1300006879.hg.1) was 1.421 and the “logFC SERTM1” value (5 µM SAHA vs DMSO, transcript TC1300006883.hg.1) was 2.721. For the same compound, the “logFC NDFIP2” value (5 µM SAHA vs DMSO, transcript TC1300007592.hg.1) was 1.353, the “logFC CLDN10” value (5 µM SAHA vs DMSO, transcript TC1300007752.hg.1) was 1.556 and the “logFC RAP2A” value (5 µM SAHA vs DMSO, transcript TC1300007780.hg.1) was 1.182. The “logFC SLITRK6” value (5 µM SAHA vs DMSO, transcript TC1300009394.hg.1) was 2.414, the “logFC KDELC1” value (5 µM SAHA vs DMSO, transcript TC1300009674.hg.1) was 1.5525 and the “logFC HSPA2” value (5 µM SAHA vs DMSO, transcript TC1400007443.hg.1) was 3.285. For the same compound, the “logFC PPP4R4” value (5 µM SAHA vs DMSO, transcript TC1400008058.hg.1) was 2.48, the “logFC TXNDC16” value (5 µM SAHA vs DMSO, transcript TC1400009184.hg.1) was 1.763 and the “logFC EGLN3” value (5 µM SAHA vs DMSO, transcript TC1400010730.hg.1) was 2.2444. For the same compound, the “logFC CKMT1B” value (5 µM SAHA vs DMSO, transcript TC1500007062.hg.1) was 2.569, the “logFC CKMT1A” value (5 µM SAHA vs DMSO, transcript TC1500007067.hg.1) was 3.452 and the “logFC IQCH” value (5 µM SAHA vs DMSO, transcript TC1500007640.hg.1) was 1.591. For the same compound, the “logFC ARRDC4” value (5 µM SAHA vs DMSO, transcript TC1500008470.hg.1) was 1.5, the “logFC GCOM1” value (5 µM SAHA vs DMSO, transcript TC1500010744.hg.1) was 1.317 and the “logFC ATP1B2” value (5 µM SAHA vs DMSO, transcript TC1700006763.hg.1) was 3.1227. The “logFC TMEM107” value (5 µM SAHA vs DMSO, transcript TC1700009676.hg.1) was 1.351, the “logFC CORO6” value (5 µM SAHA vs DMSO, transcript TC1700010252.hg.1) was 1.546 and the “logFC C1QL1” value (5 µM SAHA vs DMSO, transcript TC1700010856.hg.1) was 1.605. The “logFC TTLL6” value (5 µM SAHA vs DMSO, transcript TC1700011007.hg.1) was 1.858, the logFC (5 µM SAHA vs DMSO, transcript TC1700011261.hg.1) was 1.393 and the “logFC TMEM241” value (5 µM SAHA vs DMSO, transcript TC1800008281.hg.1) was 1.807. The “logFC REEP6” value (5 µM SAHA vs DMSO, transcript TC1900006537.hg.1) was 1.987, the “logFC INAFM1” value (5 µM SAHA vs DMSO, transcript TC1900008416.hg.1) was 2.5078 and the “logFC PRKCG” value (5 µM SAHA vs DMSO, transcript TC1900008825.hg.1) was 1.503. The “logFC RFPL4A” value (5 µM SAHA vs DMSO, transcript TC1900008931.hg.1) was 3.505, the “logFC RFPL4AL1” value (5 µM SAHA vs DMSO, transcript TC1900008932.hg.1) was 2.766 and the “logFC KCNC3” value (5 µM SAHA vs DMSO, transcript TC1900011194.hg.1) was 1.754. The “logFC FXYD7” value (5 µM SAHA vs DMSO, transcript TC1900011710.hg.1) was 2.141, the “logFC RTBDN” value (5 µM SAHA vs DMSO, transcript TC1900011892.hg.1) was 2.027 and the “logFC RNF24” value (5 µM SAHA vs DMSO, transcript TC2000008242.hg.1) was 1.55. For the same compound, the “logFC TASP1” value (5 µM SAHA vs DMSO, transcript TC2000008436.hg.1) was 1.327, the “logFC FLRT3” value (5 µM SAHA vs DMSO, transcript TC2000008445.hg.1) was 2.943 and the “logFC CYP24A1” value (5 µM SAHA vs DMSO, transcript TC2000009522.hg.1) was 1.58. For the same compound, the “logFC LCA5L” value (5 µM SAHA vs DMSO, transcript TC2100008171.hg.1) was 1.839, the “logFC H1F0” value (5 µM SAHA vs DMSO, transcript TC2200007318.hg.1) was 1.771 and the “logFC, unannotated transcript” value (DMSO vs SAHA, downregulated, transcript 23064072) was -1.45. For the same compound, the “logFC, unannotated transcript” value (DMSO vs SAHA, downregulated, transcript 23064958) was -1.242, the “logFC, unannotated transcript” value (DMSO vs SAHA, downregulated, transcript 23066344) was -2.142 and the “logFC, unannotated transcript” value (DMSO vs SAHA, downregulated, transcript 23066350) was -1.951. For the same compound, the “logFC, unannotated transcript” value (DMSO vs SAHA, downregulated, transcript 23066369) was -2.142, the “logFC, unannotated transcript” value (DMSO vs SAHA, downregulated, transcript 23066376) was -1.488 and the “logFC, unannotated transcript” value (DMSO vs SAHA, downregulated, transcript 23066377) was -1.951. For the same compound, the “logFC, unannotated transcript” value (DMSO vs SAHA, downregulated, transcript 23068519) was -1.54, the “logFC, unannotated transcript” value (DMSO vs SAHA, downregulated, transcript 23071518) was -1.2407 and the “logFC, unannotated transcript” value (DMSO vs SAHA, downregulated, transcript 23074026) was -1.4. For the same compound, the “logFC, unannotated transcript” value (DMSO vs SAHA, downregulated, transcript 23074907) was -1.601, the “logFC, unannotated transcript” value (DMSO vs SAHA, downregulated, transcript 23075457) was -1.338 and the “logFC, unannotated transcript” value (DMSO vs SAHA, downregulated, transcript 23075879) was -1.002. For the same compound, the “logFC, unannotated transcript” value (DMSO vs SAHA, downregulated, transcript 23076022) was -1.002, the “logFC, unannotated transcript” value (DMSO vs SAHA, downregulated, transcript 23076173) was -1.06 and the “logFC, unannotated transcript” value (DMSO vs SAHA, downregulated, transcript HTA2-pos-3662482_st) was -0.977. For the same compound, the “logFC, unannotated transcript” value (DMSO vs SAHA, downregulated, transcript HTA2-pos-3671550_st) was -1.877, the “logFC, unannotated transcript” value (DMSO vs SAHA, downregulated, transcript HTA2-pos-3671554_st) was -1.443 and the “logFC, unannotated transcript” value (DMSO vs SAHA, downregulated, transcript HTA2-pos-PSR17008077.hg.1) was -1.062. For the same compound, the “logFC, unannotated transcript” value (DMSO vs SAHA, downregulated, transcript HTA2-pos-PSR17008082.hg.1) was -1.0258, the “logFC, unannotated transcript” value (DMSO vs SAHA, downregulated, transcript HTA2-pos-PSR17013958.hg.1) was -1.428 and the “logFC ARAF” value (DMSO vs SAHA, downregulated, transcript TC0X00007148.hg.1) was -1.073. The “logFC RBM3” value (DMSO vs SAHA, downregulated, transcript TC0X00007195.hg.1) was -1.375, the “logFC SUV39H1” value (DMSO vs SAHA, downregulated, transcript TC0X00007200.hg.1) was -1.395 and the “logFC PLP2” value (DMSO vs SAHA, downregulated, transcript TC0X00007222.hg.1) was -1.034. The “logFC PBDC1” value (DMSO vs SAHA, downregulated, transcript TC0X00007686.hg.1) was -1.452, the “logFC MID2” value (DMSO vs SAHA, downregulated, transcript TC0X00008078.hg.1) was -1.792 and the “logFC HMGB3” value (DMSO vs SAHA, downregulated, transcript TC0X00008724.hg.1) was -1.132. For the same compound, the “logFC TAF9B” value (DMSO vs SAHA, downregulated, transcript TC0X00010136.hg.1) was -1.5452 and the “logFC STS” value (DMSO vs SAHA, downregulated, transcript TC0X00011259.hg.1) was -1.335.
